Each structure is given as a SMILES string. Where “and” joins values, the source holds several entries; their conditions need not be identical. Equal entries are not always repeated.

For this assay, the target named is T1, Sodium/glucose cotransporter 2 (Homo sapiens, UniProt P31639).
T1 sequence (P31639 whole entry): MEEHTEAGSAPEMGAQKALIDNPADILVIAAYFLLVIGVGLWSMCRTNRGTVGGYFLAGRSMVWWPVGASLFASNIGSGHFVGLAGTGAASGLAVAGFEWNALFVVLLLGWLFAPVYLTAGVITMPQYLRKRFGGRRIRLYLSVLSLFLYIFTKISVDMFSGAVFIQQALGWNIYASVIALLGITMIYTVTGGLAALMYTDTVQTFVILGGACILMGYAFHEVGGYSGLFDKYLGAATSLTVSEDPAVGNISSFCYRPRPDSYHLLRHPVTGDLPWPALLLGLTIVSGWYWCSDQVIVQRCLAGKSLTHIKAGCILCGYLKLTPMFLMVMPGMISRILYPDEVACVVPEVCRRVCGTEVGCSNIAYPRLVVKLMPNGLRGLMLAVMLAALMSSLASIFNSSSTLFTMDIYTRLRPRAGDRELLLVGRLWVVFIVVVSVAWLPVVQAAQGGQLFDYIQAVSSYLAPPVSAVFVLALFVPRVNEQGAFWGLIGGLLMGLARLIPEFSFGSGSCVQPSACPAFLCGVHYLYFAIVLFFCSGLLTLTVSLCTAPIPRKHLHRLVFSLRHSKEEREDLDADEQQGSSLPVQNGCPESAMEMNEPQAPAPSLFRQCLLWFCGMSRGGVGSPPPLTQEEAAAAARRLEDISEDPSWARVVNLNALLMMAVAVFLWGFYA
In words: Biological Assays: The SGLT2 functional assay was designed to detect the inhibition of methyl-alpha-D glucopyranoside (AMG a non-metabolizable form of glucose) uptake via the SGLT2 transporter. The SGLT2 transporter recovers glucose from the proximal tubules of the kidney; its inhibition results in sugar wasted in the urine. The positive control compound, Phlorizin, is a known inhibitor of glucose uptake for SGLT2 and was used for comparing the high percent effect of SGLT2 inhibition of the test compounds.

Take `CCOc1ccc(Cc2cc([C@]34OC[C@](COC(C)=O)(O3)[C@@H](O)[C@H](O)[C@H]4O)ccc2Cl)cc1`: the IC50 was 5 nM and 6.7 nM.

A word on the IC50: it is the point on the concentration scale where inhibition reaches its midpoint. High values mean a need for much substance, low ones inhibition by little substance.

These data come from ChEMBL document CHEMBL3639107, “Dioxa-bicyclo[3.2.1]octane-2,3,4-triol derivatives” (2014).
